Data set [1] addresses T1, SsTsr3 (Saccharolobus solfataricus, UniProt Q9UWV6).
T1 sequence (Q9UWV6 1-166): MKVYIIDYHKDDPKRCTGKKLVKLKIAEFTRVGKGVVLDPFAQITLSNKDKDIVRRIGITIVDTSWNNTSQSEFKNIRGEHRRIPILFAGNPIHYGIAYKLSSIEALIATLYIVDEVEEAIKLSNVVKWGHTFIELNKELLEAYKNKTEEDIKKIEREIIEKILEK
Description: tryptophan fluorescence quenching. The data set is classed as binding.

Data set [2] concerns the target SsTsr3 (Saccharolobus solfataricus, UniProt Q9UWV6, T17A). Description: biochemical.
For data set [3], the target named is SsTsr3 (Saccharolobus solfataricus, UniProt Q9UWV6, T17D). In words: biochemical.
The target of data set [4] is SsTsr3 (Saccharolobus solfataricus, UniProt Q9UWV6, D63A). Description: biochemical.
For the next data set, the target named is VdTsr3 (Vulcanisaeta distributa, UniProt E1QU22). To be noted: co-purified endogenous E. coli SAM.
In data set [5] the target is T2, SsTsr3 (Sulfolobus solfataricus, UniProt Q9UWV6 1-166).
T2 sequence: T1 sequence (Q9UWV6 1-166)
In words: fluorescence anisotropy. (In general: In fluorescence polarisation assays a small probe gives low polarisation when free and higher when bound to something large.)

Chain of SsTsr3 (Saccharolobus solfataricus, UniProt Q9UWV6, T17A) (Q9UWV6 whole entry T17A): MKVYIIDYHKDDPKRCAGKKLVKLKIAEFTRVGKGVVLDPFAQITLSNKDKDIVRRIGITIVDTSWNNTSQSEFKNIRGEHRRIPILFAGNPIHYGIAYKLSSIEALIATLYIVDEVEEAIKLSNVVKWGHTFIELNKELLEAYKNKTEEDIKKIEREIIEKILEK
Chain of VdTsr3 (E1QU22 whole entry): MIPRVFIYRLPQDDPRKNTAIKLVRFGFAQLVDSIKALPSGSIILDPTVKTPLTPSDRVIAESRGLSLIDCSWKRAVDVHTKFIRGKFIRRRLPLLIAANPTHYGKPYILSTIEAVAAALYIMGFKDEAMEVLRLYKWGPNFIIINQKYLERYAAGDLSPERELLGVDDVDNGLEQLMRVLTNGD
Chain of SsTsr3 (Saccharolobus solfataricus, UniProt Q9UWV6, D63A) (Q9UWV6 whole entry D63A): as the sequence (Q9UWV6 whole entry T17A) above, with A17T, D63A counted along it
Chain of SsTsr3 (Saccharolobus solfataricus, UniProt Q9UWV6, T17D) (Q9UWV6 whole entry T17D): as the sequence (Q9UWV6 whole entry T17A) above, with A17D counted along it

Turning to `C[S+](CC[C@H](N)C(=O)O)C[C@H]1O[C@@H](n2cnc3c(N)ncnc32)[C@H](O)[C@@H]1O` (stereo partly drawn) [SAM], the Kd turned out to be 6.5 µM at SsTsr3 [1], 3900 µM at SsTsr3 [2], 11200 µM on SsTsr3 [3] and 11 µM on SsTsr3 [4]. Besides, the “X-ray crystal structure, 1.6 Å (Se-SAD)” value on VdTsr3 was “VdTsr3 was purified and crystallized in complex with endogenous (E. coli) SAM”.

For the molecule UUUUUUUUU (ssRNA) [oligo-U9 RNA], binding in the data set with SsTsr3 [5] was put at a Kd of 6 µM.

One may read the Kd as the free concentration of one partner at which half of the binding sites on the other are occupied at equilibrium, for simple one-to-one binding. High values mean weaker binding, low ones tighter binding.
